This note sets out measurements from PubChem BioAssay (NCI).

Among the test systems are A498 renal; KM12 colon; BT-549 breast; UACC-257 melanoma; EKVX NSCLC; DU-145 prostate; UO-31 renal; HS 578T breast; TK-10 renal; HOP-62 NSCLC.
Holding throughout (assay): DTP human tumour cell line panel, 48 h

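Five concentrations, 48 hours, 96-well plates. TGI is the concentration that stops growth completely.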 Where only a bound is given, the exact number is not on record here.

With `C[C@H](CCC(=O)O)[C@H]1CC[C@H]2[C@@H]3[C@H](O)[C@H](O)[C@@H]4C[C@H](O)CC[C@]4(C)[C@H]3CC[C@]12C`, the TGI with A498 renal, with KM12 colon, in the experiment on BT-549 breast, with UACC-257 melanoma, in the experiment on EKVX NSCLC and in the experiment on DU-145 prostate was greater than 100 µM throughout. For the same compound, the TGI with UO-31 renal, in the experiment with HS 578T breast, in the experiment with TK-10 renal and in the experiment on HOP-62 NSCLC was greater than 100 µM throughout.
`C[n+]1c2ccccc2n2c3ccccc3c(NCc3ccco3)c(C#N)c21`: the TGI (commonly the concentration at which net growth stops) in the experiment on A498 renal was 20.4 µM; with KM12 colon it was 22 µM; in the experiment on BT-549 breast, greater than 100 µM; with UACC-257 melanoma, 57.4 µM; in the experiment with EKVX NSCLC it was 13.6 µM; with DU-145 prostate, greater than 22.1 µM. Also, the TGI in the experiment with UO-31 renal is 7.63 µM; in the experiment with HS 578T breast it was 10.8 µM; in the experiment on TK-10 renal it was 11.3 µM; in the experiment on HOP-62 NSCLC, 11.4 µM.
With `Cc1cn(C(CO)OC(CO)CN(O)C2C3CC4CC(C3)CC2C4)c(=O)[nH]c1=O` (stereo not drawn), the TGI with A498 renal, in the experiment with KM12 colon, with BT-549 breast, in the experiment on UACC-257 melanoma, in the experiment with EKVX NSCLC and in the experiment with DU-145 prostate was greater than 100 µM in each case. Further, the TGI in the experiment with UO-31 renal, in the experiment with HS 578T breast, with TK-10 renal and in the experiment with HOP-62 NSCLC was greater than 100 µM each time.
On to `Cc1nc(-c2cccnc2)sc1C(=O)CC(=O)C(=O)Nc1cccc(NC(=O)C(=O)CC(=O)c2sc(-c3cccnc3)nc2C)n1`, for which the TGI in the experiment on A498 renal, in the experiment on KM12 colon, with BT-549 breast, with UACC-257 melanoma, in the experiment with EKVX NSCLC and in the experiment with DU-145 prostate was greater than 100 µM in each case. For the same compound, the TGI in the experiment on UO-31 renal and with HS 578T breast was greater than 100 µM in each case.
With `CC(C)(C)n1[nH]c(=O)n(C(C)(C)C)c1=O`, the TGI in the experiment with A498 renal, in the experiment on KM12 colon, in the experiment with BT-549 breast, with UACC-257 melanoma, in the experiment with DU-145 prostate and with UO-31 renal was greater than 100 µM in each case. The TGI with HS 578T breast and with TK-10 renal was greater than 100 µM each time.
Turning to `CSc1c(C(N)=S)c(N)nn1-c1ccccc1`, the TGI in the experiment with A498 renal, in the experiment on KM12 colon, in the experiment with BT-549 breast, with UACC-257 melanoma, in the experiment on EKVX NSCLC and in the experiment with DU-145 prostate was greater than 100 µM in each case. Also, the TGI in the experiment with UO-31 renal, in the experiment with HS 578T breast and with TK-10 renal was greater than 100 µM throughout.
`COC(=O)c1ccc(NCC2=CC(=O)C=CC2=O)cc1O`: the TGI stood at 32.8 µM with A498 renal; 25.1 µM with BT-549 breast; 30.6 µM in the experiment on UACC-257 melanoma; 31.6 µM with EKVX NSCLC; 29 µM in the experiment with DU-145 prostate; 25.4 µM with UO-31 renal. Moreover, the TGI in the experiment with HS 578T breast is greater than 100 µM; in the experiment with TK-10 renal, 27.9 µM; in the experiment on HOP-62 NSCLC, 34.5 µM.
In the case of `O=C1/C(=C/c2ccc([N+](=O)[O-])cc2)CCCc2ccccc21`, the TGI in the experiment on KM12 colon, with BT-549 breast, in the experiment with UACC-257 melanoma, in the experiment on EKVX NSCLC, with DU-145 prostate and in the experiment on UO-31 renal was greater than 100 µM each time. Moreover, the figures for the TGI in the experiment on HS 578T breast, with TK-10 renal and in the experiment with HOP-62 NSCLC were 75.9 µM, greater than 100 µM and greater than 100 µM, respectively.
Turning to `COc1c(C)c(C/C=C(\C)CC/C=C(\C)CC/C=C(\C)CC/C=C(\C)CCC=C(C)C)c(OC)c(OC)c1OC`, the TGI in the experiment with KM12 colon is 29.1 µM; in the experiment with BT-549 breast, greater than 100 µM; in the experiment on UACC-257 melanoma, greater than 100 µM; with EKVX NSCLC, greater than 100 µM; with DU-145 prostate, greater than 100 µM; with UO-31 renal, 70.4 µM. Also, the TGI was greater than 100 µM with HS 578T breast, 69 µM with TK-10 renal and 37.6 µM in the experiment with HOP-62 NSCLC.
Turning to `COc1ccc2nc(N/N=C/c3ccc(C)s3)cc(C)c2c1`, the TGI was determined as 39.8 µM in the experiment with KM12 colon; 29.6 µM in the experiment on BT-549 breast; 39.4 µM with UACC-257 melanoma; 87.9 µM with EKVX NSCLC; 34.7 µM with DU-145 prostate; 36.5 µM in the experiment on UO-31 renal. Moreover, the concentration for total growth inhibition (TGI) with HS 578T breast is 55.2 µM; with TK-10 renal, greater than 100 µM; in the experiment with HOP-62 NSCLC it was 39.6 µM.
With `CC(=O)OC(OC(C)=O)c1c2ccccc2cc2ccccc12`, the TGI with A498 renal is 40.7 µM; in the experiment with KM12 colon, 33.4 µM; in the experiment with BT-549 breast it was 32.9 µM; with UACC-257 melanoma, 41 µM; with EKVX NSCLC, 50.4 µM; in the experiment on DU-145 prostate it was greater than 100 µM. Besides, the concentration for total growth inhibition (TGI) came out at 53 µM with UO-31 renal, 78.3 µM in the experiment with HS 578T breast and 61.2 µM in the experiment with TK-10 renal.
For the compound `O=C(CSc1nc2ccc(I)cc2c(=O)n1Cc1ccccc1)NNC(=S)Nc1ccccc1`, the TGI in the experiment on A498 renal is greater than 100 µM; with KM12 colon, greater than 100 µM; in the experiment with BT-549 breast, greater than 100 µM; in the experiment with UACC-257 melanoma, 98.7 µM; in the experiment on EKVX NSCLC, 6.14 µM; with DU-145 prostate, greater than 100 µM. Moreover, the TGI with HS 578T breast and in the experiment with TK-10 renal was greater than 100 µM in each case.
